Test results published in patent US9227923B2, “Pesticidal carboxamides” (Bayer Intellectual Property GmbH, priority 2009, dated 2016).

Legend:
[1] = tested on: Cucurbit Leaf Beetle (Aulacophora Femoralis); experiment: Test against cucurbit leaf beetle (Aulacophora femoralis), leaf dip; type: in vivo; conditions: active compound concentration of 100 ppm; second instar larvae; after 7 days
Procedure: (§1) Solvent: 3 parts by weight of dimethylformamide
(§2) Emulsifier: 1 part by weight of polyoxyethylene alkyl phenyl ether
Leaves of cucumber were immersed in the test solution at the appropriate concentration, and the leaves were dried in air. The leaves were then put in a plastic cup containing sterilized black soil and five Aulacophora femoralis at second instar larvae were released in the cup. The cups were placed in a temperature-controlled chamber at 25° C. After 7 days, the number of dead larvae was counted, and thus the insecticidal activity was calculated. An insecticidal activity of 100% means that all larvae were killed, whereas an insecticidal activity of 0% means that no larva was killed.

[2] = tested on: Tobacco Cutworm (Spodoptera litura) Larvae; experiment: Test against tobacco cutworm (Spodoptera litura) larvae, leaf dip; type: in vivo; conditions: active compound concentration of 100 ppm, third instar larvae, after 7 days; for pest or weed control at 100 ppm: Spodoptera litura, foliar, 168 h, read-out: insecticidal activity
Procedure: as §1, §2
Leaves of sweet potato were immersed in the test solution at the appropriate concentration, and the leaves were dried in air. The leaves were then placed in a petri dish having a diameter of 9 cm, and ten Spodoptera litura at third instar larvae were released therein. The petri dishes were placed in a temperature-controlled chamber at 25° C. After 2 days and 4 days more sweet potato leaves were added. After 7 days, the number of dead larvae was counted to calculate the insecticidal activity. An insecticidal activity of 100% means that all larvae were killed, whereas an insecticidal activity of 0% means that no larva was killed.

Cc1cc(C(F)(C(F)(F)F)C(F)(F)F)cc(C)c1NC(=O)c1ccc(-n2cncn2)cc1Cl [Compound 1-5]
insecticidal activity [1]: 100%

CCc1cc(C(F)(C(F)(F)F)C(F)(F)F)cc(C)c1NC(=O)c1ccc(-n2cncn2)c2ccccc12 [Compound 2-2]
insecticidal activity [2]: 100% | insecticidal activity [1]: 100%

CCc1cc(C(F)(C(F)(F)F)C(F)(F)F)cc(C)c1NC(=O)c1ccc(-n2cncn2)nc1 [Compound 4-2]
insecticidal activity [2]: 100% | insecticidal activity [1]: 100%

Cc1cc(C(F)(C(F)(F)F)C(F)(F)F)cc(C)c1NC(=O)c1ccc(CNC(=O)CC2CC2)cc1 [Compound 5-8]
insecticidal activity [2]: 100% | insecticidal activity [1]: 100%

CC(=O)NCc1ccc(C(=O)Nc2c(C)cc(C(F)(C(F)(F)F)C(F)(F)F)cc2C)c(F)c1 [Compound 5-21]
insecticidal activity [2]: 100% | insecticidal activity [1]: 100%

CCC(=O)NCc1ccc(C(=O)Nc2c(C)cc(C(F)(C(F)(F)F)C(F)(F)F)cc2C)c(F)c1 [Compound 5-22]
insecticidal activity [2]: 100% | insecticidal activity [1]: 100%

CCc1cc(C(F)(C(F)(F)F)C(F)(F)F)cc(C)c1NC(=O)c1ccc(CNC(=O)c2ccccc2F)cc1 [Compound 5-34]
insecticidal activity [2]: 100% | insecticidal activity [1]: 100%

CCc1cc(C(F)(C(F)(F)F)C(F)(F)F)cc(C)c1NC(=O)c1ccc(CNC(=O)c2cccc(F)c2)cc1 [Compound 5-35]
insecticidal activity [2]: 100% | insecticidal activity [1]: 100%

CCC(=O)NCc1ccc(C(=O)Nc2c(C)cc(C(F)(C(F)(F)F)C(F)(F)F)cc2CC)c(F)c1 [Compound 5-45]
insecticidal activity [2]: 100% | insecticidal activity [1]: 100%

CCc1cc(C(F)(C(F)(F)F)C(F)(F)F)cc(C)c1NC(=O)c1ccc(CNC(=O)CC2CC2)cc1F [Compound 5-46]
insecticidal activity [2]: 100% | insecticidal activity [1]: 100%

CCc1cc(C(F)(C(F)(F)F)C(F)(F)F)cc(C)c1NC(=O)c1ccc(CNC(C)=O)c(F)c1F [Compound 5-51]
insecticidal activity [2]: 100% | insecticidal activity [1]: 100%

CCC(=O)NCc1cc(F)c(C(=O)Nc2c(C)cc(C(F)(C(F)(F)F)C(F)(F)F)cc2CC)cc1F [Compound 5-59]
insecticidal activity [2]: 100% | insecticidal activity [1]: 100%

CCc1cc(C(F)(C(F)(F)F)C(F)(F)F)cc(C)c1NC(=O)c1ccc(CNC(C)=O)cc1Cl [Compound 5-65]
insecticidal activity [1]: 100%

CCc1cc(C(F)(C(F)(F)F)C(F)(F)F)cc(C)c1NC(=O)c1ccc(CNC(=O)C2CC2)c(Cl)c1 [Compound 5-79]
insecticidal activity [2]: 100% | insecticidal activity [1]: 100%

CCc1cc(C(F)(C(F)(F)F)C(F)(F)F)cc(C)c1NC(=O)c1ccc(CNS(C)(=O)=O)c(Br)c1 [Compound 5-96]
insecticidal activity [2]: 100% | insecticidal activity [1]: 100%

CCC(=O)NCc1ccc(C(=O)Nc2c(C)cc(C(F)(C(F)(F)F)C(F)(F)F)cc2CC)cc1C [Compound 5-100]
insecticidal activity [2]: 100% | insecticidal activity [1]: 100%

CCC(=O)NCc1ccc(C(=O)Nc2c(C)cc(C(F)(C(F)(F)F)C(F)(F)C(F)(F)F)cc2C)cc1 (stereo not drawn) [Compound 5-127]
insecticidal activity [1]: 100%

CCc1cc(C(F)(C(F)(F)F)C(F)(F)C(F)(F)F)cc(C)c1NC(=O)c1ccc(CNC(C)=O)c(F)c1 (stereo not drawn) [Compound 5-144]
insecticidal activity [2]: 100% | insecticidal activity [1]: 100%

CCC(=O)NCc1ccc(C(=O)Nc2c(C)cc(C(F)(C(F)(F)F)C(F)(F)C(F)(F)F)cc2CC)cc1F (stereo not drawn) [Compound 5-145]
insecticidal activity [2]: 100% | insecticidal activity [1]: 100%

CCc1cc(C(F)(C(F)(F)F)C(F)(F)C(F)(F)F)cc(C)c1NC(=O)c1ccc(CNC(=O)C2CC2)c(Cl)c1 (stereo not drawn) [Compound 5-152]
insecticidal activity [2]: 100% | insecticidal activity [1]: 100%

O=C(CC(F)(F)F)NCc1ccc(C(=O)Nc2c(Cl)cc(C(F)(C(F)(F)F)C(F)(F)F)cc2Cl)cc1 [Compound 5-226]
insecticidal activity [1]: 100%

Cc1cc(C(F)(C(F)(F)F)C(F)(F)F)cc(Cl)c1NC(=O)c1ccc(CNC(=O)CC2CC2)cc1 [Compound 5-336]
insecticidal activity [2]: 100%

CCc1cc(C(F)(C(F)(F)F)C(F)(F)F)cc(C)c1NC(=O)c1ccc(CNC(=O)C(F)(F)F)c(Br)c1 [Compound 5-349]
insecticidal activity [2]: 100%

CCc1cc(C(F)(C(F)(F)F)C(F)(F)F)cc(C)c1NC(=O)c1ccc(CNC(C)=O)c2ccccc12 [Compound 6-2]
insecticidal activity [2]: 100%

CCC(=O)NCc1ccc(C(=O)Nc2c(C)cc(C(F)(C(F)(F)F)C(F)(F)F)cc2CC)c2ccccc12 [Compound 6-3]
insecticidal activity [2]: 100%

CCc1cc(C(F)(C(F)(F)F)C(F)(F)F)cc(C)c1NC(=O)c1ccc(CNC(=O)C2CC2)c2ccccc12 [Compound 6-4]
insecticidal activity [2]: 100%

CCc1cc(C(F)(C(F)(F)F)C(F)(F)F)cc(C)c1NC(=O)c1ccc(CNC(=O)CC2CC2)c2ccccc12 [Compound 6-5]
insecticidal activity [2]: 100%

CCc1cc(C(F)(C(F)(F)F)C(F)(F)F)cc(C)c1NC(=O)c1ccc(CNC(=O)CC(F)(F)F)cn1 [Compound 7-6]
insecticidal activity [2]: 100%

CCc1cc(C(F)(C(F)(F)F)C(F)(F)F)cc(C)c1NC(=O)c1ccc(CNC(=O)CC(F)(F)F)nc1 [Compound 8-6]
insecticidal activity [2]: 100%

CCc1cc(C(F)(C(F)(F)F)C(F)(F)F)cc(C)c1NC(=O)c1ccc(C(C)NC(=O)CC2CC2)cc1 (stereo not drawn) [Compound 9-5]
insecticidal activity [2]: 100%

CCc1cc(C(F)(C(F)(F)F)C(F)(F)F)cc(C)c1NC(=O)c1ccc2c(c1)CCC2NC(C)=O (stereo not drawn) [Compound 10-2, 1-acetamide-N-[2-ethyl-4-(1,1,1,2,3,3,3-heptafluoropropan-2-yl)-6-methylphenyl]indane-5-carboxamide]
pest or weed control at 100 ppm [2]: 100%

CCc1cc(C(F)(C(F)(F)F)C(F)(F)F)cc(C)c1NC(=O)c1ccc2c(c1)CCCC2NC(=O)CC(F)(F)F (stereo not drawn) [Compound 11-6]
insecticidal activity [2]: 100%

CCc1cc(C(F)(C(F)(F)F)C(F)(F)F)cc(C)c1NC(=O)c1ccc(-n2cncn2)c(CNC(C)=O)c1 [Compound 12-3, 3-(acetamidemethyl)-N-[2-ethyl-4-(1,1,1,2,3,3,3-heptafluoropropan-2-yl)-6-methylphenyl]-4-(1H-1,2,4-triazol-1-yl)benzamide]
pest or weed control at 100 ppm [2]: 100%

CCC(=O)NCc1cc(C(=O)Nc2c(C)cc(C(F)(C(F)(F)F)C(F)(F)F)cc2CC)ccc1-n1cncn1 [Compound 12-4]
insecticidal activity [2]: 100%

CCc1cc(C(F)(C(F)(F)F)C(F)(F)F)cc(C)c1NC(=O)c1ccc(-n2cncn2)c(CNC(=O)OC)c1 [Compound 12-5]
insecticidal activity [2]: 100%

O=C(Nc1c(Cl)cc(C(F)(C(F)(F)F)C(F)(F)F)cc1Cl)c1ccc(I)c(Cl)c1 [Compound A-7, 3-chloro-N-[2,6-dichloro-4-(1,1,1,2,3,3,3-heptafluoropropan-2-yl)phenyl]-4-iodobenzamide]
pest or weed control at 100 ppm [2]: 100%

CCc1cc(C(F)(C(F)(F)F)C(F)(F)F)cc(C)c1NC(=O)c1ccc(C#N)cc1 [Compound I-2]
insecticidal activity [2]: 100%

CCc1cc(C(F)(C(F)(F)F)C(F)(F)F)cc(C)c1NC(=O)c1ccc(C#N)cc1F [Compound I-3]
insecticidal activity [2]: 100%

Cc1cc(C#N)ccc1C(=O)Nc1c(Cl)cc(C(F)(C(F)(F)F)C(F)(F)F)cc1Cl [Compound I-25]
insecticidal activity [2]: 100%

Cc1cc(C(F)(C(F)(F)F)C(F)(F)F)cc(Cl)c1NC(=O)c1ccc(C#N)cc1 [Compound I-28]
insecticidal activity [2]: 100%
